We go through three molecules from patent US20250041389A1, “ENHANCING ABSORPTION OF DIETARY COMPOUNDS TO PROMOTE HEALTH” (ARIZONA BOARD OF REGENTS ON BEHALF OF THE UNIVERSITY OF …, priority 2023, published 2025).

The subject of test [1] is TGF-β signaling in human breast cancer cells. The experiment in a line: Inhibition of TGF-β signaling in human breast cancer cells. The format is cell-based.
The subject of test [2] is breast cancer bone metastasis models. The test can be described thus: Osteolysis in breast cancer bone metastasis models. The format is in vivo.
The next test has as its system ovariectomized rats. The test can be described thus: Bone loss in ovariectomized rats (FDA-approved model for testing osteoporosis treatments). The format is in vivo.
Test [3] has as its system rheumatoid arthritis model. The experiment in a line: Joint inflammation in a rheumatoid arthritis model. The format is in vivo.

Turning to `COc1cc(/C=C/C(=O)CC(=O)/C=C/c2ccc(O)c(OC)c2)ccc1O` [curcumin], the TGF-β signaling result in test [1] is on record as “inhibit”. Besides, the osteolysis result in test [2] is recorded as “mitigate”. In addition, in the test with ovariectomized rats, the bone loss entry is given as “prevent” and the bone-resorbing osteoclasts entry is on record as “decreasing”. The joint inflammation entry in test [3] is listed as “prevent”.

With shogaols, the joint inflammation entry in test [3] is on record as “prevent”.

gingerols: the joint inflammation entry in test [3] is “prevent”.
